US8530489B2 (Vertex Pharmaceuticals Incorporated, priority 2006, dated 2013)

Target: PLK1 (Homo sapiens, UniProt P53350)
Test: PLK1 Inhibition Assay I (radioactive-phosphate incorporation)
Format: biochemical
Details: Ki(app); PLK1 Inhibition Assay I or II (table does not say which)
Protocol: The compounds of the present invention are evaluated as inhibitors of human PLK kinase using the following assays.
Compounds were screened for their ability to inhibit PLK1 using a radioactive-phosphate incorporation assay. Assays were carried out in a mixture of 25 mM HEPES (pH 7.5), 10 mM MgCl2, and 1 mM DTT. Final substrate concentrations were 350 μM [γ-33P]ATP (136 mCi 33P ATP/mmol ATP, Amersham Pharmacia Biotech/Sigma Chemicals) and 450 μM peptide (KKKISDELMDATFADQEAK) [SEQ. ID:1]. Assays were carried out at 25° C. in the presence of 2 nM PLK1. An assay stock buffer solution was prepared containing all of the reagents listed above, with the exception of ATP and the test compound of interest. 30 μL of the stock solution was placed in a 96 well plate followed by addition of 2 μL of DMSO stock containing serial dilutions of the test compound (typically starting from a final concentration of 10 μM with 2-fold serial dilutions) in duplicate (final DMSO concentration 5%). The plate was pre-incubated for 10 minutes at 25° C. and the reaction initiated by addition of 8 μL [γ-33P]ATP (final concentration 350 μM).
The reaction was stopped after 240 minutes by the addition of 100 μL 0.14M phosphoric acid. A multiscreen phosphocellulose filter 96-well plate (Millipore, Cat No. MAPHN0B50) was pretreated with 100 μL 0.1 M phosphoric acid prior to the addition of 125 μL of the stopped assay mixture. The plate was washed with 4×200 μL 0.1 M phosphoric acid. After drying, 100 μL Optiphase ‘SuperMix’ liquid scintillation cocktail (Perkin Elmer) was added to the well prior to scintillation counting (1450 Microbeta Liquid Scintillation Counter, Wallac).
After removing mean background values for all of the data points, Ki(app) data were calculated from non-linear regression analysis of the initial rate data using the Prism software package (GraphPad Prism version 3.0cx for Macintosh, GraphPad Software, San Diego Calif., USA).

Sequence of PLK1 (P53350 whole entry): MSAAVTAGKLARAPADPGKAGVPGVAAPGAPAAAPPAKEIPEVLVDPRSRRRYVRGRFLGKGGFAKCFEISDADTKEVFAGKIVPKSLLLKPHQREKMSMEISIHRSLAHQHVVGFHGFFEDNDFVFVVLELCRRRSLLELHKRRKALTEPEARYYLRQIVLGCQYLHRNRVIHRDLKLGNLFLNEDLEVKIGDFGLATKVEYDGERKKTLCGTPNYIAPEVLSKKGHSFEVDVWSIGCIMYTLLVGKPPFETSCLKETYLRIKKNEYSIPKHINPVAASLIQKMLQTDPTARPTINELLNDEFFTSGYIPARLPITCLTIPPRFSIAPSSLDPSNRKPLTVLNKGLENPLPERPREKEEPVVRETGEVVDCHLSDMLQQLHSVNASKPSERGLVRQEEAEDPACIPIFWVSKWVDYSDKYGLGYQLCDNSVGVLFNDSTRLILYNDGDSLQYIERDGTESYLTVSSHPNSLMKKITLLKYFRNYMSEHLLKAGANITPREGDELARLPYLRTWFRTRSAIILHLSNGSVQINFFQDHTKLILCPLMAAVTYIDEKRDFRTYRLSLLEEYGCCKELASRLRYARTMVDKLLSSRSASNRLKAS

Row | Ki | Structure (SMILES)
1 | < 3 nM | C[C@@H](Nc1ncc(C#N)c(-c2c[nH]c3ncc(C(F)(F)F)cc23)n1)c1cnc(O)nc1 [Compound I-302, 2-(I-1-(2-hydroxypyrimidin-5-yl)ethylamino)-4-(5-(trifluoromethyl)-1H-pyrrolo[2,3-b]pyridin-3-yl)pyrimidine-5-carbonitrile]
2 | < 3 nM | C[C@@H](Nc1ncc(C#N)c(-c2c[nH]c3ncc(C(F)(F)F)cc23)n1)C1CCN(C(=O)CCO)CC1 [Compound I-216, 2-((R)-1-(1-(3-hydroxypropanoyl)piperidin-4-yl)ethylamino)-4-(5-(trifluoromethyl)-1H-pyrrolo[2,3-b]pyridin-3-yl)pyrimidine-5-carbonitrile]
3 | 3 to 40 nM | C[C@@H](Nc1ncc(C#N)c(-c2c[nH]c3ncc(C(F)(F)F)cc23)n1)c1ccc(N2CC[C@@H](N(C)C)C2)nc1 [Compound I-286, 2-((R)-1-(6-((R)-3-(dimethylamino)pyrrolidin-1-yl)pyridin-3-yl)ethylamino)-4-(5-(trifluoromethyl)-1H-pyrrolo[2,3-b]pyridin-3-yl)pyrimidine-5-carbonitrile]
4 | > 40 nM | N#Cc1cnc(NCCC2CCCCN2)nc1-c1c[nH]c2ncc(C(F)(F)F)cc12 (stereo not drawn) [Compound I-68, 2-(2-(piperidin-2-yl)ethylamino)-4-(5-(trifluoromethyl)-1H-pyrrolo[2,3-b]pyridin-3-yl)pyrimidine-5-carbonitrile]
5 | > 40 nM | N#Cc1cnc(NC(CO)C2CCOC2)nc1-c1c[nH]c2ncc(C(F)(F)F)cc12 (stereo not drawn) [Compound I-104, 2-(2-hydroxy-1-(tetrahydrofuran-3-yl)ethylamino)-4-(5-(trifluoromethyl)-1H-pyrrolo[2,3-b]pyridin-3-yl)pyrimidine-5-carbonitrile]
6 | 3 to 40 nM | C[C@@H](Nc1ncc(C#N)c(-c2c[nH]c3ncc(C(F)(F)F)cc23)n1)c1cccc(C(F)(F)F)c1 [Compound I-45, 4-(5-(trifluoromethyl)-1H-pyrrolo[2,3-b]pyridin-3-yl)-2-((R)-1-(3-(trifluoromethyl)phenyl)ethylamino)pyrimidine-5-carbonitrile]
7 | < 3 nM | C[C@@H](Nc1ncc(C#N)c(-c2c[nH]c3ncc(C(F)(F)F)cc23)n1)C1CCN(C(=O)CN)CC1 [Compound I-210, 2-((R)-1-(1-(2-aminoacetyl)piperidin-4-yl)ethylamino)-4-(5-(trifluoromethyl)-1H-pyrrolo[2,3-b]pyridin-3-yl)pyrimidine-5-carbonitrile]
8 | > 40 nM | N#Cc1cnc(NCc2ccc(-n3cccn3)cc2)nc1-c1c[nH]c2ncc(C(F)(F)F)cc12 [Compound I-92, 2-(4-(1H-pyrazol-1-yl)benzylamino)-4-(5-(trifluoromethyl)-1H-pyrrolo[2,3-b]pyridin-3-yl)pyrimidine-5-carbonitrile]
9 | < 3 nM | CCOc1ccc(C(C)Nc2ncc(C#N)c(-c3c[nH]c4ncc(C(F)(F)F)cc34)n2)cc1 (stereo not drawn) [Compound I-112, 2-(1-(4-ethoxyphenyl)ethylamino)-4-(5-(trifluoromethyl)-1H-pyrrolo[2,3-b]pyridin-3-yl)pyrimidine-5-carbonitrile]
10 | > 40 nM | C[C@H](Nc1ncc(C#N)c(-c2c[nH]c3ncc(C(F)(F)F)cc23)n1)c1ccc(O[C@@H]2CCN(C)C2)nc1 [Compound I-301, 2-((S)-1-(6-(I-1-methylpyrrolidin-3-yloxy)pyridin-3-yl)ethylamino)-4-(5-(trifluoromethyl)-1H-pyrrolo[2,3-b]pyridin-3-yl)pyrimidine-5-carbonitrile]
11 | < 3 nM | CC[C@@H](O)C(=O)N1CCC([C@@H](C)Nc2ncc(C#N)c(-c3c[nH]c4ncc(C(F)(F)F)cc34)n2)CC1 [Compound I-219, 2-((R)-1-(1-((R)-2-hydroxybutanoyl)piperidin-4-yl)ethylamino)-4-(5-(trifluoromethyl)-1H-pyrrolo[2,3-b]pyridin-3-yl)pyrimidine-5-carbonitrile]
12 | > 40 nM | CCN1CCC(CNc2ncc(C#N)c(-c3c[nH]c4ncc(C(F)(F)F)cc34)n2)CC1 [Compound I-118, 2-((1-ethylpiperidin-4-yl)methylamino)-4-(5-(trifluoromethyl)-1H-pyrrolo[2,3-b]pyridin-3-yl)pyrimidine-5-carbonitrile]
13 | < 3 nM | C[C@@H](O)C(=O)N1CCC([C@@H](C)Nc2ncc(C#N)c(-c3c[nH]c4ncc(C(F)(F)F)cc34)n2)CC1 [Compound I-207, 2-((R)-1-(1-((R)-2-hydroxypropanoyl)piperidin-4-yl)ethylamino)-4-(5-(trifluoromethyl)-1H-pyrrolo[2,3-b]pyridin-3-yl)pyrimidine-5-carbonitrile]
14 | > 40 nM | N#Cc1cnc(SCCc2ccccc2)nc1-c1c[nH]c2ncc(C(F)(F)F)cc12 [II-10, 2-(phenethylthio)-4-(5-(trifluoromethyl)-1H-pyrrolo[2,3-b]pyridin-3-yl)pyrimidine-5-carbonitrile]
15 | < 3 nM | C[C@@H](Nc1ncc(C#N)c(-c2c[nH]c3ncc(C(F)(F)F)cc23)n1)c1ccccc1 [Compound I-6, 2-((R)-1-phenylethylamino)-4-(5-(trifluoromethyl)-1H-pyrrolo[2,3-b]pyridin-3-yl)pyrimidine-5-carbonitrile]
16 | > 40 nM | N#Cc1cnc(NC2CCCc3ccccc32)nc1-c1c[nH]c2ncc(C(F)(F)F)cc12 (stereo not drawn) [Compound I-34, 2-(1,2,3,4-tetrahydronaphthalen-1-ylamino)-4-(5-(trifluoromethyl)-1H-pyrrolo[2,3-b]pyridin-3-yl)pyrimidine-5-carbonitrile]
17 | < 3 nM | C[C@@H](Nc1ncc(C#N)c(-c2c[nH]c3ncc(C(F)(F)F)cc23)n1)C1CCN(C(=O)C2(O)CC2)CC1 [Compound I-220, 2-((R)-1-(1-(1-hydroxycyclopropanecarbonyl)piperidin-4-yl)ethylamino)-4-(5-(trifluoromethyl)-1H-pyrrolo[2,3-b]pyridin-3-yl)pyrimidine-5-carbonitrile]
18 | > 40 nM | CC(C)(Nc1ncc(C#N)c(-c2c[nH]c3ncc(C(F)(F)F)cc23)n1)C(=O)NCCC(F)(F)F [IA-1, 2-(5-cyano-4-(5-(trifluoromethyl)-1H-pyrrolo[2,3-b]pyridin-3-yl)pyrimidin-2-ylamino)-2-methyl-N-(3,3,3-trifluoropropyl)propanamide]
19 | < 3 nM | CC[C@@H](C)Nc1ncc(C#N)c(-c2c[nH]c3ncc(C(F)(F)F)cc23)n1 [Compound I-83, 2-(sec-butylamino)-4-(5-(trifluoromethyl)-1H-pyrrolo[2,3-b]pyridin-3-yl)pyrimidine-5-carbonitrile]
20 | > 40 nM | CC(C)Oc1ncc(C#N)c(-c2c[nH]c3ncc(C(F)(F)F)cc23)n1 [EG5, 2-isopropoxy-4-(5-(trifluoromethyl)-1H-pyrrolo[2,3-b]pyridin-3-yl)pyrimidine-5-carbonitrile]
21 | > 40 nM | C[C@@H](Nc1ncc(C#N)c(-c2c[nH]c3ncc(C(F)(F)F)cc23)n1)c1ccc(Br)cc1 [Compound I-33, 2-((R)-1-(4-bromophenyl)ethylamino)-4-(5-(trifluoromethyl)-1H-pyrrolo[2,3-b]pyridin-3-yl)pyrimidine-5-carbonitrile]
22 | 3 to 40 nM | CC(=O)N[C@H]1CC[C@@H]([C@@H](C)Nc2ncc(C#N)c(-c3c[nH]c4ncc(C(F)(F)F)cc34)n2)CC1 [Compound I-209, N-((1S,4s)-4-((1R)-1-(5-cyano-4-(5-(trifluoromethyl)-1H-pyrrolo[2,3-b]pyridin-3-yl)pyrimidin-2-ylamino)ethyl)cyclohexyl)acetamide]
23 | 3 to 40 nM | N#Cc1cnc(N[C@@H]2CC[C@H](CO)C2)nc1-c1c[nH]c2ncc(C(F)(F)F)cc12 [Compound I-119, 2-((1R,3S)-3-(hydroxymethyl)cyclopentylamino)-4-(5-(trifluoromethyl)-1H-pyrrolo[2,3-b]pyridin-3-yl)pyrimidine-5-carbonitrile]
24 | > 40 nM | N#Cc1cnc(NCc2ccc(Cl)cc2)nc1-c1c[nH]c2ncc(C(F)(F)F)cc12 [Compound I-19, 2-(4-chlorobenzylamino)-4-(5-(trifluoromethyl)-1H-pyrrolo[2,3-b]pyridin-3-yl)pyrimidine-5-carbonitrile]
25 | > 40 nM | CC(Nc1ncc(C#N)c(-c2c[nH]c3ncc(C(F)(F)F)cc23)n1)C1CN(C(=O)CN)C1 (stereo not drawn) [Compound I-235, 2-(1-(1-(2-aminoacetyl)azetidin-3-yl)ethylamino)-4-(5-(trifluoromethyl)-1H-pyrrolo[2,3-b]pyridin-3-yl)pyrimidine-5-carbonitrile]
26 | < 3 nM | C[C@@H](Nc1ncc(C#N)c(-c2c[nH]c3ncc(C(F)(F)F)cc23)n1)[C@H]1CC[C@@H](NS(C)(=O)=O)CC1 (single isomer, unassigned) [Compound I-203]
27 | 3 to 40 nM | N#Cc1cnc(NCc2ccc(O)cc2)nc1-c1c[nH]c2ncc(C(F)(F)F)cc12 [Compound I-90, 4-(5-(1,1-Trifluoromethyl)-1H-pyrrolo[2,3-b]pyridin-3-yl)-2-(4-hydroxybenzylamino)pyrimidine-5-carbonitrile]
